The record followed here is patent US10871487B2, “FRET-based glucose-detection molecules” (priority 2016, dated 2020).

Assay [1] deals with T1, FRET-based glucose-detection molecule D263, glucose-binding region derived from E. coli mg1B (galactose binding protein), 16 = V (Escherichia coli, UniProt P0AEE5, F39V).
T1 construct: made in E. coli, purified
The experiment in a line: Kd of residue 16 variant at room temperature (D263). The source says:
(§1) Reference is also made to FIG. 2, which is a graph that illustrates, in a generalized manner, FRET behavior of molecule 20 (and of the molecules that it represents), in accordance with some applications of the invention. Three important features of molecules suitable for FRET-based glucose detection are: • (1) High contrast. That is, a large difference between the FRET:F ratio in the disassociated state and the FRET:F ratio in the associated state (referred to herein as “delta ratio” (“dR”)). In FIG. 2, this is represented as the difference between the highest FRET:F ratio and the lowest FRET:F ratio on the curve. • (2) High sensitivity at physiologically-relevant glucose concentrations when at physiologically-relevant temperatures. […]
(§2) The measurements were performed on proteins that were extracted from E. coli (in which they were produced) and purified in 50 mM Tris (pH 7.6, 1 mM CaCl_2, 100 mM NaCl_2). Measurements were performed using an Infinite (R) 200 plate reader or on a fluoroscopic microscope. FRET-based emission was measured by applying excitation at 475 nm and detecting emission at 640-800 nm. Direct fluorescence of the acceptor fluorophore was measured by applying excitation at 575 nm and detecting emission at 640-800 nm. Curves were generated from the measured points (typically 10) by a non-linear interpolation, and Kd and dR were extracted. […]

Assay [2] deals with T2, FRET-based glucose-detection molecule D241, glucose-binding region derived from E. coli mg1B (galactose binding protein), 16 = Q (Escherichia coli, UniProt P0AEE5, F39Q).
T2 construct: made in E. coli, purified
T2 sequence (P0AEE5 24-332 F39Q limits assumed): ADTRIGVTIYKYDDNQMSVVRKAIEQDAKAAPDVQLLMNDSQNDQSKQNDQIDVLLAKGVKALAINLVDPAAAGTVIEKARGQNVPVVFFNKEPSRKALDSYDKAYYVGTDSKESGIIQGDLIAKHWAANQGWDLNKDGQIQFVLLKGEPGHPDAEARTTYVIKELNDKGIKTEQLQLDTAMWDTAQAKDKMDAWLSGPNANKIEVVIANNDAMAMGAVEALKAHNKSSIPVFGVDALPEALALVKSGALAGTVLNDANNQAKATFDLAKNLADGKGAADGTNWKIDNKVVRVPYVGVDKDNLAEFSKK
The experiment in a line: Kd of residue 16 variant at room temperature (D241).
Text: as §1, §2

Assay [3] addresses T3, FRET-based glucose-detection molecule D278, SEQ ID No. 3, glucose-binding region derived from E. coli mg1B (galactose binding protein), residue 16 = Q (Escherichia coli, UniProt P0AEE5, DELINS298-299[…]/F39Q).
T3 construct: red acceptor fluorophore at N-terminus with linker; FRET sensor D278; made in E. coli, purified
The experiment in a line: FRET:F ratio at different glucose concentrations, Kd extracted from curve (D278). Conditions: FIG. 5B.
Text: (§3) Reference is also made to FIG. 2, which is a graph that illustrates, in a generalized manner, FRET behavior of molecule 20 (and of the molecules that it represents), in accordance with some applications of the invention. Three important features of molecules suitable for FRET-based glucose detection are: • (1) High contrast. That is, a large difference between the FRET:F ratio in the disassociated state and the FRET:F ratio in the associated state (referred to herein as “delta ratio” (“dR”)). […]
(§4) Reference is now made to FIG. 4, which is a set of graphs which show, for some of the molecules described hereinabove, the FRET:F ratio (y axis) at different glucose concentrations, measured at 35 degrees C.
as §2

Assay [4] deals with T4, FRET-based glucose-detection molecule D198, glucose-binding region derived from E. coli mg1B (galactose binding protein), 16 = A (Escherichia coli, UniProt P0AEE5, F39A).
T4 construct: made in E. coli, purified
T4 sequence (P0AEE5 24-332 F39A limits assumed): as the sequence (P0AEE5 24-332 F39Q limits assumed) above, with Q16A counted along it
The experiment in a line: Kd of residue 16 variant at room temperature (D198).
Text: as §1, §2

Assay [5] addresses T5, FRET-based glucose-detection molecule D279, SEQ ID No. 4, glucose-binding region derived from E. coli mg1B (galactose binding protein), residue 16 = Q (Escherichia coli, UniProt P0AEE5, DELINS299-299[…]/F39Q).
T5 construct: red acceptor fluorophore at N-terminus; FRET sensor D279; made in E. coli, purified
The experiment in a line: FRET:F ratio at different glucose concentrations, Kd extracted from curve (D279). To be noted: FIG. 5B.
Text: as §3, §4, §2

Assay [6] addresses T6, FRET-based glucose-detection molecule D277, SEQ ID No. 2, glucose-binding region derived from E. coli mg1B (galactose binding protein), residue 16 = Q (Escherichia coli, UniProt P0AEE5, DELINS298-299[…]/F39Q).
T6 construct: red acceptor fluorophore at N-terminus with linker; FRET sensor D277; made in E. coli, purified
The experiment in a line: FRET:F ratio at different glucose concentrations, Kd extracted from curve (D277). To be noted: FIG. 5B.
Text: as §3, §4, §2

Assay [7] addresses T7, FRET-based glucose-detection molecule D274, SEQ ID No. 1, glucose-binding region derived from E. coli mg1B (galactose binding protein), residue 16 = Q (Escherichia coli, UniProt P0AEE5, DELINS298-299[…]/F39Q).
T7 construct: red acceptor fluorophore at N-terminus; FRET sensor D274; made in E. coli, purified
The experiment in a line: FRET:F ratio at different glucose concentrations, Kd extracted from curve (D274). To be noted: FIG. 5B.
Text: as §3, §4, §2

For assay [8], the target named is T8, FRET-based glucose-detection molecule D267, glucose-binding region derived from E. coli mg1B (galactose binding protein), 16 = N (Escherichia coli, UniProt P0AEE5, F39N).
T8 construct: made in E. coli, purified
T8 sequence (P0AEE5 24-332 F39N limits assumed): as the sequence (P0AEE5 24-332 F39Q limits assumed) above, with Q16N counted along it
The experiment in a line: Kd of residue 16 variant at room temperature (D267).
Text: as §1, §2

T1 sequence (P0AEE5 24-332 F39V limits assumed): as the sequence (P0AEE5 24-332 F39Q limits assumed) above, with Q16V counted along it
T5 sequence (P0AEE5 other isoform, or with tags, fused parts or gaps with the stated changes): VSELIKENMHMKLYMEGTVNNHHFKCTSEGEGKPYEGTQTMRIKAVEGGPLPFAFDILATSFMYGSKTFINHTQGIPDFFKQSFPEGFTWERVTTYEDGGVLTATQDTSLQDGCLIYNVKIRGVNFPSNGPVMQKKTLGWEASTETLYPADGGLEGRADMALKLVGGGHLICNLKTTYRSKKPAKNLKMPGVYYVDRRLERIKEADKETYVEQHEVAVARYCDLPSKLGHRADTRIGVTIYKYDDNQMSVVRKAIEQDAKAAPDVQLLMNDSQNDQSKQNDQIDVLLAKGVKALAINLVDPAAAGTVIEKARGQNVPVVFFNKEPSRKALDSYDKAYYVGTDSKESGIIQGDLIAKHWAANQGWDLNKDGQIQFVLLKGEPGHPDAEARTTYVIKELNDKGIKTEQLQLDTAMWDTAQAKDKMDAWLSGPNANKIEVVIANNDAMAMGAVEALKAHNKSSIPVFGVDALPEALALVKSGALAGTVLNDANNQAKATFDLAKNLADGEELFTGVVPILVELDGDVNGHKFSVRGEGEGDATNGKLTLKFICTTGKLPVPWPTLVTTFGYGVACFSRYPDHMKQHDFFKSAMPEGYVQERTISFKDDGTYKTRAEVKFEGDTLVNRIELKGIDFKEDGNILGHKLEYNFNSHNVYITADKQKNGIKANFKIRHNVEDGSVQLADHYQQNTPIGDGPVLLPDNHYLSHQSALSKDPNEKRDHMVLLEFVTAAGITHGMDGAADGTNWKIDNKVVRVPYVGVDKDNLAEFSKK
T3 sequence (P0AEE5 other isoform, or with tags, fused parts or gaps with the stated changes): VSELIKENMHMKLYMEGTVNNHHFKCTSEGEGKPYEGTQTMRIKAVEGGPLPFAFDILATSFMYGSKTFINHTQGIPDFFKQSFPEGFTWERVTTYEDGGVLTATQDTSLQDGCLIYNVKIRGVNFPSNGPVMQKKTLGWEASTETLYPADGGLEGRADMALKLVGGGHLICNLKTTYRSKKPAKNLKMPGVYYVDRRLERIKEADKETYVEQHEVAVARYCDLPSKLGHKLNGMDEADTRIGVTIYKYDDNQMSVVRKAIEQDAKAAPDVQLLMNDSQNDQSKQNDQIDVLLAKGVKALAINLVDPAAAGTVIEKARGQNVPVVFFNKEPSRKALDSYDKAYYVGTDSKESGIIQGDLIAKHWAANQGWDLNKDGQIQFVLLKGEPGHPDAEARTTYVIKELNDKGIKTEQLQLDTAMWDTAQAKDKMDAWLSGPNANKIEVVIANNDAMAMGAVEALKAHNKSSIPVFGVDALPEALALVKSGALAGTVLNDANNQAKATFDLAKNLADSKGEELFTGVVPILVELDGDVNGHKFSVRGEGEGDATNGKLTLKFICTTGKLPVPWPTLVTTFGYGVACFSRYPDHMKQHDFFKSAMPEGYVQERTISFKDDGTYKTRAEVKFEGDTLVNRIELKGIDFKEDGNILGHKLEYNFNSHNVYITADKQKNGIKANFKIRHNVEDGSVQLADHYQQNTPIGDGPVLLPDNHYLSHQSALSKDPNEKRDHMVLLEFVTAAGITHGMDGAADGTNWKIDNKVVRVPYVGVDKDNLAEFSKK
T7 sequence (P0AEE5 other isoform, or with tags, fused parts or gaps with the stated changes): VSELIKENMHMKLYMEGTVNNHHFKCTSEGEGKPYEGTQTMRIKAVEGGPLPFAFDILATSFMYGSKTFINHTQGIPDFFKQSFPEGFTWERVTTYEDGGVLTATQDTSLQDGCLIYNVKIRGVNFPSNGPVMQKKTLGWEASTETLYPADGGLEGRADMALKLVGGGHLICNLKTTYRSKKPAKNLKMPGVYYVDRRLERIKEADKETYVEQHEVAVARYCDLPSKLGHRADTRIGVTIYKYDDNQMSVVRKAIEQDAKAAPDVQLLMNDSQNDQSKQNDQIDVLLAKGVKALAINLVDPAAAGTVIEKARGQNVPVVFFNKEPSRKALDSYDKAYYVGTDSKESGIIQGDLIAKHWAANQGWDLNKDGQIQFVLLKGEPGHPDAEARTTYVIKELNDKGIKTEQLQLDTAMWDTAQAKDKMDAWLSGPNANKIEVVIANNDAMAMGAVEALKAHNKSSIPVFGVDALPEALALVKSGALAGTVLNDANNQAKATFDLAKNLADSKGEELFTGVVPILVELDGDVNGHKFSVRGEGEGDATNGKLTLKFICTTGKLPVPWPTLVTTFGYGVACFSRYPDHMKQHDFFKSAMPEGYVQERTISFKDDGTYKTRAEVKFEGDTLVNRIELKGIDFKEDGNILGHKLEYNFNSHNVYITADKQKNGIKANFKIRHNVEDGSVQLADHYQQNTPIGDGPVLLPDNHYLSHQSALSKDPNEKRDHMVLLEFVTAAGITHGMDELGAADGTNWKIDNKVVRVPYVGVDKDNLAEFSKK
T6 sequence (P0AEE5 other isoform, or with tags, fused parts or gaps with the stated changes): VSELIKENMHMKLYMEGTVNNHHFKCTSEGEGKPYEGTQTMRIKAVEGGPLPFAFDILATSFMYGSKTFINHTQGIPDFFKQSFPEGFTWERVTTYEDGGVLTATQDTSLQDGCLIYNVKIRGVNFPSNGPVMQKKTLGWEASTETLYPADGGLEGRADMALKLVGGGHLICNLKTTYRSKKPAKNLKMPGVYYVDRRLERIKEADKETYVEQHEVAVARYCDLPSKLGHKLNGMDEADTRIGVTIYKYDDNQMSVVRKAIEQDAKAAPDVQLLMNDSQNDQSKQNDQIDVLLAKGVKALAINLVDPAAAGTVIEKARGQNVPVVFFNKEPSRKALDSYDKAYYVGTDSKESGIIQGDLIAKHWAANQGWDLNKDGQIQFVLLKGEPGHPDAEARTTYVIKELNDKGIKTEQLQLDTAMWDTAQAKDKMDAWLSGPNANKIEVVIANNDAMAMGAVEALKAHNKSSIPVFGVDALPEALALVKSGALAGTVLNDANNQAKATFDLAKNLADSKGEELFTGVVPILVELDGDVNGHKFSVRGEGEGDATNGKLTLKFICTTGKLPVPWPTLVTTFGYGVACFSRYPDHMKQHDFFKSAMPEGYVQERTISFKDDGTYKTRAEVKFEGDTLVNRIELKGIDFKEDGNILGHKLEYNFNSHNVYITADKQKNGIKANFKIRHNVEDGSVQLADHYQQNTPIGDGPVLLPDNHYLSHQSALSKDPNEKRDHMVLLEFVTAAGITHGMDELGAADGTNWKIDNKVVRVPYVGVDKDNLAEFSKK

In general, Kd refers to a measure of binding affinity in units of concentration. With `OC[C@H]1OC(O)[C@H](O)[C@@H](O)[C@@H]1O` (some centres unmarked) [glucose], the Kd in assay [1] stood at 7.9 mM; in assay [2], 0.3 mM; in assay [4], 3.2 mM; in assay [8], 9.4 mM. Further, the “Kd at different temperatures” value was “Kd increased with temperature for all four molecules” in assay [3]; “Kd increased with temperature for all four molecules; the change was greatest for D279” in assay [5]; “Kd increased with temperature for all four molecules” in assay [6]; “Kd increased with temperature for all four molecules; the change was greatest for D279, and smallest for D274” in assay [7].
